Data: patent publication US12516016B2, “GPX4 inhibitors, pharmaceutical compositions thereof, and their use for treating GPX4-mediated diseases” (EUBULUS BIOTHERAPEUTICS (HONG KONG) LIMITED, priority 2020, dated 2026)

Tested on: hepatocellular carcinoma cell line Hub-7
Test: Cell proliferation assay (CELL-TITER GLO cell viability)
Format: cell-based
Details: 24 h, Hub-7 cells, 24 h incubation, read-out: Inhibition of Cell Proliferation EC50
Summary of the method: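 […] cells (4,000/well) seeded overnight, then exposed 24 h to compound from 10 μM in 3-fold serial dilutions. Viability read by CELL-TITER GLO luminescence; EC50 values derived.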

Structure (SMILES)	EC50 [nM]
C[Si](C)(C)C#CC(=O)N(c1cccc(Cl)c1)C1(C(=O)NCc2cccc(Cl)c2)CCOCC1 [A195, N-(3-Chlorobenzyl)-4-(N-(3-chlorophenyl)-3-(trimethylsilyl)propiolamido)-tetrahydro-2H-pyran-4-carboxamide]	≤ 100
C=CC(=O)N(c1ccc(OC)c(Cl)c1)C(C(=O)NCc1ccccc1)c1cccc(N)c1 (stereo not drawn) [B2, N-(2-(benzylamino)-1-(3-aminophenyl)-2-oxoethyl)-N-(3-chloro-4-methoxyphenyl)acrylamide]	> 10000
C=C(F)C(=O)N(c1cccc(Cl)c1)C(C(=O)NCc1ccccc1)c1ccc(N)cc1 (stereo not drawn) [B3, N-(1-(4-Aminophenyl)-2-(benzylamino)-2-oxoethyl)-N-(3-chlorophenyl)-2-fluoroacrylamide]	> 10000
C=C(F)C(=O)N(c1ccc(OC)c(Cl)c1)C(C(=O)NCc1ccccc1)c1cccc(N)c1 (stereo not drawn) [B4, N-(1-(3-Aminophenyl)-2-(benzylamino)-2-oxoethyl)-N-(3-chloro-4-methoxy-phenyl)-2-fluoroacrylamide]	> 10000
C=CC(=O)N(c1cccc(Cl)c1)C1(C(=O)NCc2ccccc2)CCOCC1 [B5, N-Benzyl-4-(N-(3-chlorophenyl)acrylamido)tetrahydro-2H-pyran-4-carboxamide]	> 10000
C=CC(=O)N(CCc1ccccc1)C1(C(=O)NCc2ccccc2)CCOCC1 [B6, N-Benzyl-4-(N-phenethylacrylamido)tetrahydro-2H-pyran-4-carboxamide]	> 10000
C=CC(=O)N(Cc1cccc(O)c1)C1(C(=O)NCc2ccccc2)CCOCC1 [B7, N-Benzyl-4-(N-(3-hydroxybenzyl)acrylamido)tetrahydro-2H-pyran-4-carboxamide]	> 10000
C=CC(=O)N(C1CCC1)C1(C(=O)NCc2ccccc2)CCOCC1 [B8, N-Benzyl-4-(N-cyclobutylacrylamido)tetrahydro-2H-pyran-4-carboxamide]	> 10000
C=C(F)C(=O)N(c1ccc2c(cnn2C)c1)C1(C(=O)NCc2ccccc2)CCOCC1 [B9, N-Benzyl-4-(2-fluoro-N-(1-methyl-1H-indazol-5-yl)acrylamido)tetrahydro-2H-pyran-4-carboxamide]	> 10000
CN(C)C/C=C/C(=O)N(c1ccc2c(cnn2C)c1)C1(C(=O)NCc2ccccc2)CCOCC1 [B10, (E)-N-Benzyl-4-(4-(dimethylamino)-N-(1-methyl-1H-indazol-5-yl)but-2-enamido)tetrahydro-2H-pyran-4-carboxamide]	> 10000
C=CC(=O)N(c1ccc2c(cnn2C)c1)C1(C(=O)NCc2ccccc2)CCOCC1 [B11, N-Benzyl-4-(N-(1-methyl-1H-indazol-5-yl)acrylamido)tetrahydro-2H-pyran-4-carboxamide]	> 10000
CC(C)N(C(=O)CCl)C(C(=O)NCCc1ccccc1)c1cccs1 (stereo not drawn) [C1, 2-chloro-N-isopropyl-N-(2-oxo-2-(phenethylamino)-1-(thiophen-2-yl)ethyl)acetamide]	> 10000
O=C(NCCc1ccccc1)C(c1ccc([N+](=O)[O-])cc1)N(C(=O)CCl)c1cccc(O)c1 (stereo not drawn) [C9, 2-Chloro-N-(3-hydroxyphenyl)-N-(1-(4-nitrophenyl)-2-oxo-2-(phenethylamino)-ethyl)acetamide]	2000 to 10000
CC(=O)Nc1cccc(N(C(=O)CCl)C(C(=O)NCCc2ccccc2)c2ccc([N+](=O)[O-])cc2)c1 (stereo not drawn) [C11, N-(3-Acetamidophenyl)-2-chloro-N-(1-(4-nitrophenyl)-2-oxo-2-(phenethyl-amino)ethyl)acetamide]	2000 to 10000
O=C(NCCc1ccccc1)C(c1ccc([N+](=O)[O-])cc1)N(Cc1ccccc1)C(=O)CCl (stereo not drawn) [C12, N-Benzyl-2-chloro-N-(1-(4-nitrophenyl)-2-oxo-2-(phenethylamino)ethyl)-acetamide]	2000 to 10000
O=C(CCl)N(c1ccc2c(c1)OCO2)C1(C(=O)NCc2ccccc2)CCOCC1 [C19, 4-(N-(Benzo[d][1,3]dioxol-5-yl)-2-chloroacetamido)-N-benzyltetrahydro-2H-pyran-4-carboxamide]	2000 to 10000

The remaining lines, values ahead:

EC50 [nM]	Structure (SMILES)
2000 to 10000	C#CC(=O)N(c1cccc(Cl)c1)C1(C(=O)NCC(=O)N2CCCC(CO)C2)CCOCC1 (stereo not drawn) [A194, 4-(N-(3-Chlorophenyl)propiolamido)-N-(2-(3-(hydroxymethyl)piperidin-1-yl)-2-oxoethyl)tetrahydro-2H-pyran-4-carboxamide]
2000 to 10000	Nc1ccc(N(C(=O)CCl)C(C(=O)NCCc2ccccc2)c2cccs2)cc1 (stereo not drawn) [C2, N-(4-Aminophenyl)-2-chloro-N-(2-oxo-2-(phenethylamino)-1-(thiophen-2-yl)-ethyl)acetamide]
100 to 500	COc1ccc(N(C(=O)CCl)C(C(=O)NCCc2ccccc2)c2ccc(N)cc2)cc1Cl (stereo not drawn) [C3, 2-(4-aminophenyl)-2-(2-chloro-N-(3-chloro-4-methoxyphenyl)acetamido)-N-phenethylacetamide]
500 to 2000	COc1ccc(N(C(=O)CCl)C(C(=O)NCCc2ccccc2)c2ccc(NC(=O)CO)cc2)cc1Cl (stereo not drawn) [C4, 2-chloro-N-(3-chloro-4-methoxyphenyl)-N-(1-(4-(2-hydroxyacetamido)phenyl)-2-oxo-2-(phenethylamino)ethyl)acetamide]
100 to 500	O=C(NCCc1ccccc1)C(c1ccc([N+](=O)[O-])cc1)N(C(=O)CCl)c1cccc(Cl)c1 (stereo not drawn) [C5, 2-chloro-N-(3-chlorophenyl)-N-(1-(4-nitrophenyl)-2-oxo-2-(phenethylamino)ethyl)acetamide]
500 to 2000	Nc1ccc(C(C(=O)NCCc2ccccc2)N(C(=O)CCl)c2cccc(Cl)c2)cc1 (stereo not drawn) [C6, 2-chloro-N-(3-chlorophenyl)-N-(1-(4-aminophenyl)-2-oxo-2-(phenethylamino)ethyl)acetamide]
100 to 500	COC(=O)c1cccc(N(C(=O)CCl)C(C(=O)NCCc2ccccc2)c2ccc([N+](=O)[O-])cc2)c1 (stereo not drawn) [C7, Methyl-3-(2-chloro-N-(1-(4-nitrophenyl)-2-oxo-2-(phenethylamino)ethyl)-acetamido)benzoate]
2000 to 10000	O=C(NCCc1ccccc1)C(c1ccc([N+](=O)[O-])cc1)N(Cc1cccs1)C(=O)CCl (stereo not drawn) [C8, 2-Chloro-N-(1-(4-nitrophenyl)-2-oxo-2-(phenethylamino)ethyl)-N-(thiophen-2-ylmethyl)acetamide]
100 to 500	COc1cccc(N(C(=O)CCl)C(C(=O)NCCc2ccccc2)c2ccc([N+](=O)[O-])cc2)c1 (stereo not drawn) [C10, 2-Chloro-N-(3-methoxyphenyl)-N-(1-(4-nitrophenyl)-2-oxo-2-(phenethylamino)-ethyl)acetamide]
500 to 2000	COc1ccc(N(C(=O)CCl)C(C)C(=O)NCCc2ccccc2)cc1Cl (stereo not drawn) [C14]
100 to 500	COc1ccc(N(C(=O)CCl)C2(C(=O)NCCc3ccccc3)CCC(F)(F)CC2)cc1Cl [C20, 1-(2-Chloro-N-(3-chloro-4-methoxyphenyl)acetamido)-4,4-difluoro-N-phenethyl-cyclohexane-1-carboxamide]
500 to 2000	Cn1ncc2cc(N(C(=O)CCl)C3(C(=O)NCc4ccccc4)CCOCC3)ccc21 [C21, N-Benzyl-4-(2-chloro-N-(1-methyl-1H-indazol-5-yl)acetamido)tetrahydro-2H-pyran-4-carboxamide]
500 to 2000	Cn1ncc2cc(N(C(=O)CCl)C3(C(=O)NCCc4ccccc4)CCOCC3)ccc21 [C22, 4-(2-Chloro-N-(1-methyl-1H-indazol-5-yl)acetamido)-N-phenethyltetrahydro-2H-pyran-4-carboxamide]

Same assay, conditions: Hub-7 cells, 24 h incubation, read-out: Inhibition of Cell Proliferation EC50

EC50 [nM]	Structure (SMILES)
2000 to 10000	Nc1cccc(N(C(=O)CCl)C(C(=O)NCCc2ccccc2)c2cccs2)c1 (stereo not drawn) [C13]
